# Measurements reported in patent US7645802B2 (Biovail Laboratories International SRL., priority 2005, dated 2010).
# Counter-ions that a name gives are not always drawn.
# Legend:
# [1] = moisture content by KF and pH (aq. 0.5%) of bupropion salts; type: physicochemical; conditions: salt as received
# Experimental: The eight salts were first evaluated by HPLC, KF, pH and DSC for purity, water content, aqueous pH and possible polymorphs.
# The salts were analyzed by DSC (at 10° C./min from 30° C. up to 400° C.) and the pH (aq. 0.5%), and the moisture content by KF were also measured. The TGA was performed on the HCl, maleate, tosylate and HBr salts.
# [2] = Closed vial / closed glass bottle stability (40° C./75% RH) of bupropion salt APIs; type: physicochemical
# [3] = 10-Days, closed glass bottle 40 C./75% RH, HBr Lot# STN07491, HCl Lot# STN06973
# [4] = 10 Days, closed glass bottle 40 C./75% RH, HBr Lot# STN07492, HCl Lot# STN06978
# [5] = 14-Days, closed glass bottle 40° C./75% RH, HBr Lot# STN07492, HCl L# STN06973
# [6] = 24 Days, closed glass bottle 40° C./75% RH, HBr Lot# STN07492, HCl L# STN06973
# [7] = 24 Days, closed glass bottle 40° C./75% RH, HBr Lot# STN07492, HCl L# STN06973, hydrochloride
# [8] = Initial, closed glass bottle 40 C./75% RH, HBr Lot# STN07491, HCl Lot# STN06973
# [9] = Initial, closed glass bottle 40 C./75% RH, HBr Lot# STN07492, HCl Lot# STN06978
# [10] = Initial, closed glass bottle 40° C./75% RH, HBr Lot# STN07492, HCl L# STN06973
smiles,measurement,setting,value
Br.CC(NC(C)(C)C)C(=O)c1cccc(Cl)c1 (stereo not drawn) [bupropion hydrobromide],moisture content KF,[1],0.00%
same,pH of the aqueous solution of 0.5%,[1],5.92
"CC(NC(C)(C)C)C(=O)c1cccc(Cl)c1 (stereo not drawn) [Bupropion HCl, bupropion hydrochloride]",% Assay,[2]; [3],96.3%
same,% Impurities 3-CBZ,[2]; [3],0.110%
same,% Impurities 20U78/dilu,[2]; [3],0.047%
same,% Impurities 827U76,[2]; [3],0.045%
same,% Impurities 852U77,[2]; [3],0.047%
same,% Impurities Total unknown,[2]; [3],0.187%
same,% Impurities Total (%),"[2]; 10-Days, closed glass bottle 40 C./75% RH, HBr Lot# STN07491, HCl Lot# STN06973, hydrochloride",0.44%
same,% Assay,[2]; [4],96.5%
same,% Impurities 3-CBZ,[2]; [4],0.278%
same,% Impurities 20U78/dilu,[2]; [4],0.057%
same,% Impurities 827U76,[2]; [4],0.141%
same,% Impurities 852U77,[2]; [4],0.124%
same,% Impurities Total unknown,[2]; [4],0.137%
same,% Impurities Total (%),"[2]; 10 Days, closed glass bottle 40 C./75% RH, HBr Lot# STN07492, HCl Lot# STN06978, hydrochloride",0.74%
same,% Assay,[2]; [5],98.5%
same,% Impurities 3-CBZ,[2]; [5],0.019%
same,% Impurities 20U78/dilu,[2]; [5],0.038%
same,% Impurities 852U77,[2]; [5],0.010%
same,% Impurities Total unknown,[2]; [5],0.038%
same,% Impurities Total (%),"[2]; 14-Days, closed glass bottle 40° C./75% RH, HBr Lot# STN07492, HCl L# STN06973, hydrochloride",0.11%
same,% Assay,[2]; [6],98.5%
same,% Impurities 3-CBZ,[2]; [6],0.082%
same,% Impurities 827U76,[2]; [6],0.102%
same,% Impurities 852U77,[2]; [6],0.023%
same,% Impurities Total unknown,[2]; [6],0.049%
same,% Impurities 20U78/dilu,[2]; [7],0.040%
same,% Impurities Total (%),[2]; [7],0.30%
same,% Assay,[2]; [8],99.4%
same,% Impurities 3-CBZ,[2]; [8],0.003%
same,% Impurities 20U78/dilu,[2]; [8],0.040%
same,% Impurities Total unknown,[2]; [8],0.053%
same,% Impurities Total (%),"[2]; Initial, closed glass bottle 40 C./75% RH, HBr Lot# STN07491, HCl Lot# STN06973, hydrochloride",0.10%
same,% Assay,[2]; [9],99.1%
same,% Impurities 3-CBZ,[2]; [9],0.002%
same,% Impurities 20U78/dilu,[2]; [9],0.04%
same,% Impurities Total unknown,[2]; [9],0.165%
same,% Impurities Total (%),"[2]; Initial, closed glass bottle 40 C./75% RH, HBr Lot# STN07492, HCl Lot# STN06978, hydrochloride",0.21%
same,% Assay,[2]; [10],100.4%
same,% Impurities 3-CBZ,[2]; [10],0.002%
same,% Impurities 20U78/dilu,[2]; [10],0.043%
same,% Impurities 852U77,[2]; [10],0.003%
same,% Impurities Total unknown,[2]; [10],0.044%
same,% Impurities Total (%),"[2]; Initial, closed glass bottle 40° C./75% RH, HBr Lot# STN07492, HCl L# STN06973, hydrochloride",0.09%
